This note sets out measurements from ChEMBL document CHEMBL5291721, “A preclinical secondary pharmacology resource illuminates target-adverse drug reaction associations of marketed drugs” (Nat Commun, 2023).

Where only a bound is given, the exact number is not on record here.

The target of one test is Histamine H2 receptor (Homo sapiens, UniProt P25021). The test is classed as functional, cell-based.
The next test addresses T1, Progesterone receptor (Homo sapiens, UniProt P06401).
T1 sequence (P06401 whole entry): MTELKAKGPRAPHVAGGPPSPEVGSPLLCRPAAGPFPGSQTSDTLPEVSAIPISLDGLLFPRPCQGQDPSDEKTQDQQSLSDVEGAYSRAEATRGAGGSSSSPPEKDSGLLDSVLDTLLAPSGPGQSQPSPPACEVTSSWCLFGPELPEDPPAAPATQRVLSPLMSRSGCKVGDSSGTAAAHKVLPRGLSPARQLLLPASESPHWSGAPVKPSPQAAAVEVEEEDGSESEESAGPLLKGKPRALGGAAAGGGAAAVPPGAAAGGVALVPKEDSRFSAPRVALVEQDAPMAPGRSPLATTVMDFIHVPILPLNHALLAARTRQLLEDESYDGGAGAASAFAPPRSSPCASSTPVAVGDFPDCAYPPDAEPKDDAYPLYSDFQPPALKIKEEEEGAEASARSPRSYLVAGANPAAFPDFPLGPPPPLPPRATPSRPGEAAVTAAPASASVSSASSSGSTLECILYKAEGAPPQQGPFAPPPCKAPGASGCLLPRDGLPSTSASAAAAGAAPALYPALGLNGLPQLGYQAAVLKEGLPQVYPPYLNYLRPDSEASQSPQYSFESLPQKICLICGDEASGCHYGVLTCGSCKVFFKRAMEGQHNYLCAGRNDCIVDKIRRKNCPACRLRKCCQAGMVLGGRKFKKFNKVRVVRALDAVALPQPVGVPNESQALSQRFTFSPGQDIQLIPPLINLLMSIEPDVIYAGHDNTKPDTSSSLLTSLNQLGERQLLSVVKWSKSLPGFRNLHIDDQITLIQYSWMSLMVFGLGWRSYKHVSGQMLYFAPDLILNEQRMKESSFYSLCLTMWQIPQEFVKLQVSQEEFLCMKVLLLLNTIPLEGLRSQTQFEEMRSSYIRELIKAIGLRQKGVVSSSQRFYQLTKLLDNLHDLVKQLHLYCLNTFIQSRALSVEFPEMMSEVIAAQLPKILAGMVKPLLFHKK
The format is functional.

The target in a further test is Adenosine receptor A2a (Homo sapiens, UniProt P29274).
Adenosine receptor A2a, sequence (P29274 whole entry): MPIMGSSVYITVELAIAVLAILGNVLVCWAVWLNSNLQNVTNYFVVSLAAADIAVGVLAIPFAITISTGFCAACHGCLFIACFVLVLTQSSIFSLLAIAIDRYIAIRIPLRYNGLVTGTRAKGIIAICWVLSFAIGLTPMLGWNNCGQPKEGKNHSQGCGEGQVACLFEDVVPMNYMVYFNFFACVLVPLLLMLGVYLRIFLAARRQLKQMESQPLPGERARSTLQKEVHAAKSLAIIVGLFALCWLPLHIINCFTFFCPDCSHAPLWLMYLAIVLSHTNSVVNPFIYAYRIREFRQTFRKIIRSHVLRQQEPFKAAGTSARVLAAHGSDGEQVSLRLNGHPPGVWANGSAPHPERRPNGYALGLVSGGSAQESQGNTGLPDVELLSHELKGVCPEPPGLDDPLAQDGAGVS
In test [1] the target is T2, Cholecystokinin receptor type A (Homo sapiens, UniProt P32238).
T2 sequence (P32238 whole entry): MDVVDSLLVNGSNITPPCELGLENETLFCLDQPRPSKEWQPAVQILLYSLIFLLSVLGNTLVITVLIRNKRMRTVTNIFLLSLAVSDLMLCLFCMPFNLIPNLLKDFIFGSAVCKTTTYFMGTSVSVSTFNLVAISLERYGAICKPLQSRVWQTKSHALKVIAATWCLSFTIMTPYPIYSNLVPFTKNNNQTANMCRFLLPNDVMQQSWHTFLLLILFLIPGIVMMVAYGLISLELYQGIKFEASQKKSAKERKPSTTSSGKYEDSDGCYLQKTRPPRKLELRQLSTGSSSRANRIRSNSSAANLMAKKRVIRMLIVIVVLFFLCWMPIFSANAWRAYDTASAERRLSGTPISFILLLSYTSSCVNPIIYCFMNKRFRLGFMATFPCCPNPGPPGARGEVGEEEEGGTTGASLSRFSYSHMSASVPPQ

Test [2] deals with Neuronal acetylcholine receptor subunit alpha-4 (Homo sapiens, UniProt P43681).
Neuronal acetylcholine receptor subunit alpha-4, sequence (P43681 whole entry): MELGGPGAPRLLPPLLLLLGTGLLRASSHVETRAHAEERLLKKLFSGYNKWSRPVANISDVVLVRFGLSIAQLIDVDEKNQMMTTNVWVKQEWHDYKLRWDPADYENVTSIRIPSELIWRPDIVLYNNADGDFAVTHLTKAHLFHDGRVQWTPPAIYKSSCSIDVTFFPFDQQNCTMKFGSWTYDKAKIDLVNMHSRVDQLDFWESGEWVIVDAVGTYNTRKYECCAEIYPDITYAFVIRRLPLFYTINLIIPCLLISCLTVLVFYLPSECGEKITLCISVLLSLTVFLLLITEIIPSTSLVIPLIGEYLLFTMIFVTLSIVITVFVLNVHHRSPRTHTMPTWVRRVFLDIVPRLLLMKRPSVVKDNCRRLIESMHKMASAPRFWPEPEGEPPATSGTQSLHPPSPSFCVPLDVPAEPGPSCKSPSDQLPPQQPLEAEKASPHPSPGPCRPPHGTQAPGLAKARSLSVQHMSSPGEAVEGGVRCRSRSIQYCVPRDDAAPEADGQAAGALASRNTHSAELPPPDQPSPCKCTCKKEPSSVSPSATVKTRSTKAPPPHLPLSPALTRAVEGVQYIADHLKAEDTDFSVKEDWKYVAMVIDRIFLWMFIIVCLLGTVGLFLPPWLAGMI
The target in another test is D(1A) dopamine receptor (Homo sapiens, UniProt P21728). The format is functional, cell-based.
For test [3], the target named is Sodium-dependent noradrenaline transporter (Homo sapiens, UniProt P23975).
Sodium-dependent noradrenaline transporter, sequence (P23975 whole entry): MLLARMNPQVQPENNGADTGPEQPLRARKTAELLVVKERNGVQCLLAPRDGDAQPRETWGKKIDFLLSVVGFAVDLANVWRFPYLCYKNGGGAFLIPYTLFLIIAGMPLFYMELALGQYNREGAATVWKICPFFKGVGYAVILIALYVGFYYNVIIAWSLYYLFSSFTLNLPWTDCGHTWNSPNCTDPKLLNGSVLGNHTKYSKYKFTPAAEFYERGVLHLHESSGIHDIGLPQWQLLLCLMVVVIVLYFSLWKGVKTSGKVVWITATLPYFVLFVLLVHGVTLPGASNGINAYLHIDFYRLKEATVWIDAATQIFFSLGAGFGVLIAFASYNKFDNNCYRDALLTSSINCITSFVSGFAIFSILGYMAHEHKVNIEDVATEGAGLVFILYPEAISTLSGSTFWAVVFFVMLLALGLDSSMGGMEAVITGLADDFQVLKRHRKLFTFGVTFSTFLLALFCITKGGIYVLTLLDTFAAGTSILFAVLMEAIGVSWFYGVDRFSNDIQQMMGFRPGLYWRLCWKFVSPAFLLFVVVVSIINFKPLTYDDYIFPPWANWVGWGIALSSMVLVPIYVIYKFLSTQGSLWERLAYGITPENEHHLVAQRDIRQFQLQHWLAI
Test [4] concerns the target Gamma-aminobutyric acid receptor subunit alpha-1 (Rattus norvegicus, UniProt P62813). The format is functional.
For test [5], the target named is Voltage-dependent L-type calcium channel subunit alpha-1C (Rattus norvegicus, UniProt P22002). The format is functional.
Voltage-dependent L-type calcium channel subunit alpha-1C, sequence (P22002 whole entry): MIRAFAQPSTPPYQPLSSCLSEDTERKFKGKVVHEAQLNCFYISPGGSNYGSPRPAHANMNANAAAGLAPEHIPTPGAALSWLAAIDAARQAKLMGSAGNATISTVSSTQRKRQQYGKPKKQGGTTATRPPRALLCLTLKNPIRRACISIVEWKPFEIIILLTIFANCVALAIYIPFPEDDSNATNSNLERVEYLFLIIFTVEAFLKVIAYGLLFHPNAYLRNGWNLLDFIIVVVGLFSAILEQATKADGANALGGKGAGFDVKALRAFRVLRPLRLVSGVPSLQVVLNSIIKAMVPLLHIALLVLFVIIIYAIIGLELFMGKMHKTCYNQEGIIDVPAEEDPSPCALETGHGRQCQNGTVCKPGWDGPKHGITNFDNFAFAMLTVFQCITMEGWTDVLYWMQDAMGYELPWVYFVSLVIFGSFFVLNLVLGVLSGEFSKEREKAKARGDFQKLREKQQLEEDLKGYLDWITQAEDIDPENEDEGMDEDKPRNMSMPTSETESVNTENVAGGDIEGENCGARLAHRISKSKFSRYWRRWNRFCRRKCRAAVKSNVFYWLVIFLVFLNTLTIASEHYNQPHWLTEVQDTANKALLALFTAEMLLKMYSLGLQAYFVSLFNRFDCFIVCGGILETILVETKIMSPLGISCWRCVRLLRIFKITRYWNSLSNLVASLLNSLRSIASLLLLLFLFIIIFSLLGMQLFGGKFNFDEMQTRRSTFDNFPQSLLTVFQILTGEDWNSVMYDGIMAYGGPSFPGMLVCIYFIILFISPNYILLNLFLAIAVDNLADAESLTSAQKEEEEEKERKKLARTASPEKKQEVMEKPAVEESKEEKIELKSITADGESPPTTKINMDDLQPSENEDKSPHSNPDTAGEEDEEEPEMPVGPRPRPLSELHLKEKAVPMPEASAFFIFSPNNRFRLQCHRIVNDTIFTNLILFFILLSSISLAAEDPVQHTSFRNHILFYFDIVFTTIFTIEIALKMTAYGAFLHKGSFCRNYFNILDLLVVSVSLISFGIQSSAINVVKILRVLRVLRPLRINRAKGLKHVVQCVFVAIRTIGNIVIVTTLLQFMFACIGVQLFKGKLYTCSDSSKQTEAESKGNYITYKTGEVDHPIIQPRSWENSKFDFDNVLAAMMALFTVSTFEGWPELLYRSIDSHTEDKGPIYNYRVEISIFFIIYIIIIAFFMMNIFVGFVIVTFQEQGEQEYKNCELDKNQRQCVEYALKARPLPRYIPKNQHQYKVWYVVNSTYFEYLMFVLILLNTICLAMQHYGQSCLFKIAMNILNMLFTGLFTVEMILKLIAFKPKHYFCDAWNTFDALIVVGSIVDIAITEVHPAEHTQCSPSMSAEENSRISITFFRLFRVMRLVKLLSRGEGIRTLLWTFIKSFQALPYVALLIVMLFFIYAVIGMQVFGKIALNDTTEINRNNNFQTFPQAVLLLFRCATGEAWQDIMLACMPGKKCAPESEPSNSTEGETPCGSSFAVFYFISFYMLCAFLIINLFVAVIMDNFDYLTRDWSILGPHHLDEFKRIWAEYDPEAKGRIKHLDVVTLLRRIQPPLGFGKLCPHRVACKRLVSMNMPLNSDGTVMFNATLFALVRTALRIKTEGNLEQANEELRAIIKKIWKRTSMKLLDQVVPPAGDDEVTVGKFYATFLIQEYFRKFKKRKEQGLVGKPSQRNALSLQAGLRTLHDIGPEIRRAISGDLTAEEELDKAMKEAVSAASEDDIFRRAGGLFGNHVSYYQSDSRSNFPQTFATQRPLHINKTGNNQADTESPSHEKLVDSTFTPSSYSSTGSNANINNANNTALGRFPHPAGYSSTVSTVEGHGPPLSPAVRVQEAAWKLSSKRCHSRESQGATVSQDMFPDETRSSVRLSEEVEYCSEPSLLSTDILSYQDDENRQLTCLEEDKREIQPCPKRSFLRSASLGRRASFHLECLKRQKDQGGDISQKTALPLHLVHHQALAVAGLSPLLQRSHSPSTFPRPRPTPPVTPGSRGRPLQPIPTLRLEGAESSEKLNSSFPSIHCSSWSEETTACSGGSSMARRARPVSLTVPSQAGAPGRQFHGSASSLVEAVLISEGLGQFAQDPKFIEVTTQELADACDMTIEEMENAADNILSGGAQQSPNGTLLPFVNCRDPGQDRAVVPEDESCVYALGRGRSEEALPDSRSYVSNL
The target in test [6] is T3, Type-1 angiotensin II receptor (Homo sapiens, UniProt P30556).
T3 sequence (P30556 whole entry): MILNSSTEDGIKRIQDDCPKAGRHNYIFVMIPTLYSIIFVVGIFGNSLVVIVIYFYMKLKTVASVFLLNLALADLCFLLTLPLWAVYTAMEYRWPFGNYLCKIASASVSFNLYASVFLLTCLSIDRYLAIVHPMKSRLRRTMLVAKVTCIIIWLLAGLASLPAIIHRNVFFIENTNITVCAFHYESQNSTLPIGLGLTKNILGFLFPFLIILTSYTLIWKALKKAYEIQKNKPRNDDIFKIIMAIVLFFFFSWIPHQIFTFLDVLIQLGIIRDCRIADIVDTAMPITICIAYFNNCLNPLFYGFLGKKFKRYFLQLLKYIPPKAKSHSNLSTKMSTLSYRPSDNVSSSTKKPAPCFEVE

The target in test [7] is T4, Prostaglandin G/H synthase 1 (Rattus norvegicus, UniProt Q63921).
T4 sequence (Q63921 whole entry): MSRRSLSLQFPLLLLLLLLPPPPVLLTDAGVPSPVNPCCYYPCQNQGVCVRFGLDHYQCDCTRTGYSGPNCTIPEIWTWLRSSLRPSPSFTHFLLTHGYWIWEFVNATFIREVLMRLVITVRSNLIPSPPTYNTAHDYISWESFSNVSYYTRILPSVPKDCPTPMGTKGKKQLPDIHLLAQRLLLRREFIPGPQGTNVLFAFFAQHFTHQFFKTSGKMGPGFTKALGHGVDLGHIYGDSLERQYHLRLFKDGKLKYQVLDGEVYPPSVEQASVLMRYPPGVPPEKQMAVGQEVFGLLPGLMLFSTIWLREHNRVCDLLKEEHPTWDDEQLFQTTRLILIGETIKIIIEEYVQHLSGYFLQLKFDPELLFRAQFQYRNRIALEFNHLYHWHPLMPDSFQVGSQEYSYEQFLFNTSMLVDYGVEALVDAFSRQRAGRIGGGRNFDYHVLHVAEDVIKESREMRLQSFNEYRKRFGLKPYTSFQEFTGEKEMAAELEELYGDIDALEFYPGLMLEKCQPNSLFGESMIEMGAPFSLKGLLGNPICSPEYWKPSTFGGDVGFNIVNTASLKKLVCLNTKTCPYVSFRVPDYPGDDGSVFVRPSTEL
The format is functional.

For test [8], the target named is Glutamate receptor ionotropic, NMDA 1 (Rattus norvegicus, UniProt P35439).
Note: assay procedure not described here.

Histamine H2 receptor, sequence (P25021 whole entry): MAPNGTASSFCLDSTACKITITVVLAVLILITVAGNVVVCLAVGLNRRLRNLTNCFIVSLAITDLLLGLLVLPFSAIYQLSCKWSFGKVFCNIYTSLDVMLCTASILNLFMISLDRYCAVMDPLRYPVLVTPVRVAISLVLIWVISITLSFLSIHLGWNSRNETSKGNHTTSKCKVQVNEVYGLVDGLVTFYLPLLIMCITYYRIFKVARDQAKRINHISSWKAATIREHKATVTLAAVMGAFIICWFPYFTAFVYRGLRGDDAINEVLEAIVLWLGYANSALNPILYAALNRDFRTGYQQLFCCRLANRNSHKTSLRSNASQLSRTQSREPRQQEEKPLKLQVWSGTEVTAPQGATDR
Gamma-aminobutyric acid receptor subunit alpha-1, sequence (P62813 whole entry): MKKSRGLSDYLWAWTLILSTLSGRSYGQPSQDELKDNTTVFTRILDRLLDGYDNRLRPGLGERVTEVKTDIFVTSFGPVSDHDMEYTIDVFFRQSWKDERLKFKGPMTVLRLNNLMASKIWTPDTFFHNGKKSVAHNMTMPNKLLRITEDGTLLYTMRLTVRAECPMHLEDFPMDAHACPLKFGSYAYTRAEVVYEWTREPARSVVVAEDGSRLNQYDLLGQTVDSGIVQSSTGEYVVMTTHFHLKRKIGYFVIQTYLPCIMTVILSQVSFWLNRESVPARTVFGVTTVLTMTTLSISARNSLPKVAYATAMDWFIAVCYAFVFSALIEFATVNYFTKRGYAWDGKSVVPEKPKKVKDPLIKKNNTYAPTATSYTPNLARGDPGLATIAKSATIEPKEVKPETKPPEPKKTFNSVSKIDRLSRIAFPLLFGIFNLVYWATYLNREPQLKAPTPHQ

On to `CN1C(=O)CC(=O)N(c2ccccc2)c2cc(Cl)ccc21` [CLOBAZAM], for which the AC50 (on Histamine H2 receptor; at Progesterone receptor; on Adenosine receptor A2a; in [1]; in test [2]; on D(1A) dopamine receptor) was > 10 µM each time. Besides, the AC50 in test [3] is > 10 µM; in test [4], 0.3 µM; in [5], > 10 µM; in test [6], > 10 µM; in test [7], > 10 µM; in test [8] it was > 10 µM.
With `CN[C@@H]1[C@H](O)[C@H](NC)[C@H]2O[C@@]3(O)C(=O)C[C@@H](C)O[C@H]3O[C@@H]2[C@H]1O` [SPECTINOMYCIN], the AC50 (at Histamine H2 receptor; on Progesterone receptor; at Adenosine receptor A2a; in test [1]; in test [2]; on D(1A) dopamine receptor) was > 10 µM throughout. The AC50 in [3], in test [4], in [5], in [6], in test [7] and in [8] was > 10 µM each time.
With `CC1=CC(=O)c2ccccc2C1=O` [MENADIONE], the AC50 at Histamine H2 receptor is > 30 µM; on Progesterone receptor, > 30 µM; on Adenosine receptor A2a it was > 30 µM; in test [1] it was > 10 µM; in test [2], > 10 µM; on D(1A) dopamine receptor, > 10 µM. Also, the AC50 in test [3], in test [4], in [5], in [6], in test [7] and in [8] was > 10 µM throughout.
Regarding `CC(=O)O[C@@]12CO[C@@H]1C[C@H](O)[C@@]1(C)C(=O)[C@H](O)C3=C(C)[C@@H](OC(=O)[C@H](O)[C@@H](NC(=O)OC(C)(C)C)c4ccccc4)C[C@@](O)([C@@H](OC(=O)c4ccccc4)[C@H]21)C3(C)C` [DOCETAXEL ANHYDROUS], the AC50 (at Histamine H2 receptor; on Progesterone receptor; on Adenosine receptor A2a; in test [1]; in test [2]; on D(1A) dopamine receptor) was > 30 µM each time. In addition, the AC50 in test [3], in test [4], in [5], in test [6], in [7] and in test [8] was > 30 µM throughout.
Turning to `CC(=O)NS(=O)(=O)c1ccc(N)cc1` [SULFACETAMIDE], the concentration at half-maximal activity (AC50) (on Histamine H2 receptor; at Progesterone receptor; on Adenosine receptor A2a; in test [1]; in [2]; at D(1A) dopamine receptor) was > 10 µM in each case. In addition, the half-maximal activity concentration (AC50) in test [3], in [4], in test [5], in [6], in test [7] and in test [8] was > 10 µM each time.
Consider `CC[C@]1(O)C[C@@H]2CN(CCc3c([nH]c4ccccc34)[C@@](C(=O)OC)(c3cc4c(cc3OC)N(C)[C@H]3[C@@](O)(C(N)=O)[C@H](O)[C@]5(CC)C=CCN6CC[C@]43[C@@H]65)C2)C1` [VINDESINE], for which the AC50 (on Histamine H2 receptor; at Progesterone receptor; on Adenosine receptor A2a; in [1]; in [2]; on D(1A) dopamine receptor) was > 30 µM each time. The AC50 in test [3] was > 30 µM; in [4], > 30 µM; in test [5], > 30 µM; in [6], > 30 µM; in test [7] it was 25 µM; in [8], > 30 µM.
Turning to `CN1CCCN=C1COC(=O)C(O)(c1ccccc1)C1CCCCC1` (stereo not given) [OXYPHENCYCLIMINE], the AC50 (at Histamine H2 receptor; at Progesterone receptor; on Adenosine receptor A2a; in [1]; in [2]; on D(1A) dopamine receptor) was > 10 µM each time. The AC50 in test [3] is > 30 µM; in test [4], > 10 µM; in test [5], > 10 µM; in test [6] it was > 10 µM; in [7] it was > 10 µM; in test [8], > 10 µM.
Take `CN1CC[C@]23CCCC[C@H]2[C@H]1Cc1ccc(O)cc13` [LEVORPHANOL]: the AC50 at Histamine H2 receptor is > 30 µM; at Progesterone receptor, > 10 µM; on Adenosine receptor A2a it was > 10 µM; in test [1], > 10 µM; in test [2], > 10 µM; at D(1A) dopamine receptor, > 30 µM. The AC50 is > 30 µM in test [3]; > 10 µM in test [4]; > 10 µM in [5]; > 10 µM in [6]; > 10 µM in [7]; 0.652 µM in test [8].
In the case of `O=C(CCCCC(=O)Nc1c(I)cc(I)c(C(=O)O)c1I)Nc1c(I)cc(I)c(C(=O)O)c1I` [IODIPAMIDE], the AC50 on Histamine H2 receptor is > 30 µM; on Progesterone receptor, > 10 µM; at Adenosine receptor A2a, > 10 µM; in [1], > 10 µM; in test [2], > 10 µM; at D(1A) dopamine receptor it was > 30 µM. The AC50 in [3], in test [4], in [5], in test [6], in [7] and in test [8] was > 10 µM throughout.
On to `CC(C)[N+](C)(CCC(C(N)=O)(c1ccccc1)c1ccccc1)C(C)C` [ISOPROPAMIDE], for which the AC50 (on Histamine H2 receptor; on Progesterone receptor; on Adenosine receptor A2a; in [1]; in [2]; at D(1A) dopamine receptor) was > 10 µM each time. The AC50 in test [3], in test [4], in [5], in test [6], in [7] and in test [8] was > 10 µM throughout.

A word on the AC50: it is the concentration at which the activity in the assay is half-maximal.
